According to US20130053425A1, “Method for Lowering Intraocular Pressure Using Gap Junction Blockers” (priority 2011, published 2013):

Legend:
[1] = Topical administration of heptanol to rabbit eyes, intraocular pressure (IOP) in vivo; conditions: topical administration of 1.0% heptanol to the eyes (FIG. 1)
Source text: FIG. 1 illustrates the effects of topical administration of 1.0% heptanol to rabbit eyes.

[2] = test system: ciliary epithelium; experiment: In vitro short-circuit current across the ciliary epithelium (rabbit)
[3] = test system: ciliary epithelium; experiment: In vitro short-circuit current across the ciliary epithelium (ox)
[4] = test system: ciliary epithelium; experiment: In vitro short-circuit current across the ciliary epithelium (pig)
[5] = test system: porcine ciliary epithelium; experiment: Fluid flow (FF) across the ciliary epithelium in modified Ussing-type chamber; conditions: aqueous addition of 3.5 mM heptanol, 25° C., n=6 (FIG. 2)
Source text: The reasons being that firstly, no information was available at the time to teach the preparation an intact ciliary epithelium, which is required for fluid flow measurement, and secondly, even when an intact ciliary epithelium was used, there was no device available that would enable measurement of fluid flow across the ciliary epithelium. In view of this, the inventors invested a great deal of effort into developing a modified Ussing-type chamber, which enables fluid flow (FF) and potential difference across the ciliary epithelium to be measured simultaneously. Fundamentally, the Ussing-type chamber includes two hemi-chambers, between which an excised preparation of ciliary epithelium is mounted. […] The graduated capillary can be used to monitor the change in fluid volume inside the second hemi-chamber throughout the experiment, which is then calculated as FF rate. […] At a later stage, the inventors further incorporated electrodes into the FF chamber to enable both electrical parameters and FF to be monitored simultaneously. […] (A) The calculated FF rate in the blood-to-aqueous direction during the course of the experiment. (B) PD recorded simultaneously with the measurement of the capillary levels.

CCCCCCCO [heptanol]
effectiveness in lowering intraocular pressure (IOP) [1]: inconclusive results | reduction of short-circuit current across the ciliary epithelium [2]: ~80% | reduction of short-circuit current across the ciliary epithelium [3]: ~80% | reduction of short-circuit current across the ciliary epithelium [4]: ~80% | inhibition of fluid flow across the ciliary epithelium [5]: up to 78%
